Experimental data from patent publication US20250170090A1, “METHOD FOR PREVENTING OR TREATING DISEASE OR DISORDER ASSOCIATED WITH ANTINEOPLASTIC AGENT” (ONQUALITY PHARMACEUTICALS CHINA LTD., priority 2022, published 2025).

How the values were obtained:
[1] = tested on: hand-foot syndrome caused by anti-tumor agents; experiment: Treatment of established hand-foot syndrome caused by anti-tumor agents in rats (Table 4); type: in vivo
Description: After the rats (about 200 g) were fed and adapted for one week, the rats were divided into groups of 10 rats for gavage administration experiment. The anti-tumor agent was dissolved in a mixed solution of Cremophor EL:ethanol=1:1, and diluted with PBS to the required concentration (diluted about 3 times with PBS solution) before gavage. […] Specific experimental procedures followed those outlined in the prevention experiment. […] Table 4 lists the animal experiments using various anti-tumor agents and NO-NSAID ointment, as well as the corresponding experimental results (where the value in the control rate column=the incidence rate of hand-foot syndrome in the blank group−the incidence rate of hand-foot syndrome in the treatment group).

[2] = tested on: human immortalized keratinocytes (HaCaT); experiment: CCK-8 cell viability: alleviation of proliferative toxicity of anti-tumor agents on HaCaT (Table 8-1); type: cell-based; conditions: NO-NSAID 100 μM, percentage increase in viable cells vs anti-tumor agent alone
Description: (§1) Experiments were conducted using various epithelial cells: Examples 47-51 used human immortalized keratinocytes (HaCaT) with corresponding results in Table 8-1; Examples 52-56 used human oral keratinocytes (HOK) with results in Table 8-2; Examples 57-61 used gastric epithelial cells (GES-1) with results in Table 8-3; Examples 62-66 used human intestinal epithelial cells (FHs 74 Int) with results in Table 8-4.
(§2) The cultured cells were digested the suspended, counted, and seed into a 96-well plate with 5,000-10,000 cells per well. The wells are divided into the following groups: blank control group, anti-tumor agent group, anti-tumor agent+NO-NSAID group, anti-tumor agent solvent group, NO-NSAID solvent control group. Wherein each well of each group contained a basic medium, and the final liquid volume contained in each well was about 100 μL. The grouping situation was as follows: • 1) Blank control group: no solution was added except normally replacing the medium; • 2) Anti-tumor agent group: added the anti-tumor agent solution (the final concentration was shown in Table 8-1 to Table 8-4, the solvent of the anti-tumor agent solution was DMSO); • 3) Anti-tumor agent+NO-NSAID group: added the anti-tumor agent solution and the NO-NSAID solution (the final concentrations of anti-tumor agent and NO-NSAID were shown in Table 8-1 to Table 8-4, and according to the solubility of NO-NSAID, the solvent of NO-NSAID solution was selected as ethanol or sterile water, and minor volume differences in each group were adjusted by added the corresponding solvent); • 4) Anti-tumor agent solvent group: an equal volume of DMSO as contained in the corresponding anti-tumor agent solution in Group 2) was added; • 5) NO-NSAID control group: the same volume and type of solvent (for example, ethanol or sterile water) corresponding to the NO-NSAID contained in group 3) was added.
(§3) The anti-tumor agent solvent group was not involved in data processing and was only used as a reference for evaluating experimental system error. The NO-NSAID solvent control group was used for data correction to eliminate the influence of the solvent on the results.
(§4) After culturing for 24-48 hours, the Cell Counting Kit-8 (CCK-8) detection kit (C0037, Shanghai Beyotime Biotechnology Co., Ltd., Beyotime Biotechnology) was used to determine the cell viability. This allows for the calculation of the proliferative toxicity of anti-tumor agent on cell and the mitigating effect of NO-NSAID on proliferative toxicity. The results were statistically analyzed and plotted using GraphPad Prism 6.0 software and t test.

[3] = tested on: human intestinal epithelial cells (FHs 74 Int); experiment: CCK-8 cell viability: alleviation of proliferative toxicity of anti-tumor agents on FHs 74 Int (Table 8-4); type: cell-based; conditions: NO-NSAID 100 μM
Description: as §1, §2, §3, §4

[4] = tested on: gastric epithelial cells (GES-1); experiment: CCK-8 cell viability: alleviation of proliferative toxicity of anti-tumor agents on GES-1 (Table 8-3); type: cell-based, human; conditions: NO-NSAID 100 μM
Description: as §1, §2, §3, §4

[5] = tested on: chemotherapy-induced hand-foot syndrome; experiment: Prevention of chemotherapy-induced hand-foot syndrome in rat models (Table 5); type: in vivo, SD rats
Description: Rat animal model was constructed. After several days, the rats develop hand-foot syndrome in their paws. After one week of acclimatization (about 200 g), the SD rats are divided into groups of 10 rats each, followed by gavage administration experiment. The chemotherapy drugs were dissolved, and each rat was given a gavage dose of 1 mL/100 g. After gavage, the rats were fixed with a fixed cylinder. NO-NSAID ointment was applied to the paws of the rats in the medication group, and blank ointment was applied to the paws of the rats in the blank group (as blank control). […] Table 5 lists the animal experimental combinations of chemotherapy drugs and NO-NSAID ointment, as well as the corresponding experimental results (where the value in the control rate column=the incidence rate of hand-foot syndrome in the blank group−the incidence rate of hand-foot syndrome in the treatment group).

[6] = tested on: human oral keratinocytes (HOK); experiment: CCK-8 cell viability: alleviation of proliferative toxicity of anti-tumor agents on HOK (Table 8-2); type: cell-based; conditions: NO-NSAID 100 μM
Description: as §1, §2, §3, §4

[7] = Capecitabine 4000 mg/kg once a day, ointment 1% wt, Days 40
[8] = Capecitabine 4000 mg/kg once a day, ointment 3% wt, Days 40

SMILES: CC(C(=O)OCCCO[N+](=O)[O-])c1ccc(-c2ccccc2)c(F)c1 (stereo not shown) [Compound A1]
- Response rate ([1]; Apatinib 105 mg/kg once every two days, ointment 2.50% wt, Days 7): 28.57%
- Response rate ([1]; Cabozantinib 50 mg/kg once every two days, ointment 1% wt, Days 11): 28.57%
- Response rate ([1]; Encorafenib 80 mg/kg once every two days, ointment 2.50% wt, Days 9): 14.29%
- Response rate ([1]; Fruquintinib 40 mg/kg once every two days, ointment 2.50% wt, Days 8): 42.86%
- Response rate ([1]; Lenvatinib 65 mg/kg once a day, ointment 2.50% wt, Days 9): 40.00%
- Response rate ([1]; Olmutinib 100 mg/kg once every two days, ointment 2.50% wt, Days 12): 42.86%
- Response rate ([1]; Regorafenib 90 mg/kg once every two days, ointment 0.50% wt, Days 8): 14.29%
- Response rate ([1]; Sorafenib 80 mg/kg once every two days, ointment 2.50% wt, Days 5): 28.57%
- Response rate ([1]; Sunitinib 120 mg/kg once every two days, ointment 2.50% wt, Days 9): 28.57%
- Response rate % (average) ([2]; Afatinib (10 μM)): 38%
- Response rate % (average) ([2]; Cabozantinib (5 μM)): 36%
- Response rate % (average) ([2]; Dabrafenib (10 μM)): 2%
- Response rate % (average) ([2]; Everolimus (5 μM)): −3%
- Response rate % (average) ([2]; Infigratinib (15 μM)): −6%
- Response rate % (average) ([2]; Lapatinib (5 μM)): 33%
- Response rate % (average) ([2]; Lenvatinib (10 μM)): 24%
- Response rate % (average) ([2]; Olmutinib (10 μM)): 42%
- Response rate % (average) ([2]; Regorafenib (5 μM)): 41%
- Response rate % (average) ([2]; Selumetinib (5 μM)): 19%
- Response rate % (average) ([2]; Sorafenib (5 μM)): 25%
- Response rate % (average) ([2]; Sunitinib (5 μM)): 15%
- Response rate % (average) ([3]; Afatinib (10 μM)): 39%
- Response rate % (average) ([3]; Cabozantinib (5 μM)): 27%
- Response rate % (average) ([3]; Dabrafenib (10 μM)): −9%
- Response rate % (average) ([3]; Everolimus (5 μM)): 19%
- Response rate % (average) ([3]; Infigratinib (15 μM)): 0%
- Response rate % (average) ([3]; Lapatinib (5 μM)): 35%
- Response rate % (average) ([3]; Lenvatinib (10 μM)): 43%
- Response rate % (average) ([3]; Olmutinib (10 μM)): 34%
- Response rate % (average) ([3]; Regorafenib (5 μM)): 37%
- Response rate % (average) ([3]; Selumetinib (5 μM)): 29%
- Response rate % (average) ([3]; Sorafenib (5 μM)): 17%
- Response rate % (average) ([3]; Sunitinib (5 μM)): 21%
- Response rate % (average) ([4]; Afatinib (10 μM)): 24%
- Response rate % (average) ([4]; Cabozantinib (5 μM)): 28%
- Response rate % (average) ([4]; Dabrafenib (10 μM)): 6%
- Response rate % (average) ([4]; Everolimus (5 μM)): 24%
- Response rate % (average) ([4]; Infigratinib (15 μM)): 23%
- Response rate % (average) ([4]; Lapatinib (5 μM)): 31%
- Response rate % (average) ([4]; Lenvatinib (10 μM)): 41%
- Response rate % (average) ([4]; Olmutinib (10 μM)): 38%
- Response rate % (average) ([4]; Regorafenib (5 μM)): 34%
- Response rate % (average) ([4]; Selumetinib (5 μM)): 18%
- Response rate % (average) ([4]; Sorafenib (5 μM)): 15%
- Response rate % (average) ([4]; Sunitinib (5 μM)): −2%
- Control rate [5, 7]: 37.50%
- Control rate [5, 8]: 44.44%
- Control rate ([5]; Doxorubicin 7 mg/kg once every three days, ointment 1% wt, Days 30): 50.00%
- Response rate % (average) ([6]; Afatinib (10 μM)): 41%
- Response rate % (average) ([6]; Cabozantinib (5 μM)): 23%
- Response rate % (average) ([6]; Dabrafenib (10 μM)): 2%
- Response rate % (average) ([6]; Everolimus (5 μM)): −2%
- Response rate % (average) ([6]; Infigratinib (15 μM)): 1%
- Response rate % (average) ([6]; Lapatinib (5 μM)): 12%
- Response rate % (average) ([6]; Lenvatinib (10 μM)): 38%
- Response rate % (average) ([6]; Olmutinib (10 μM)): 40%
- Response rate % (average) ([6]; Regorafenib (5 μM)): 22%
- Response rate % (average) ([6]; Selumetinib (5 μM)): 15%
- Response rate % (average) ([6]; Sorafenib (5 μM)): 22%
- Response rate % (average) ([6]; Sunitinib (5 μM)): 9%

SMILES: CC(=O)Oc1ccccc1C(=O)OCOC(=O)CCCCCO[N+](=O)[O-] [Compound A3]
- Response rate ([1]; Regorafenib 90 mg/kg once every two days, ointment 1% wt, Days 7): 33.33%
- Response rate ([1]; Sorafenib 80 mg/kg once every two days, ointment 3% wt, Days 7): 42.86%
- Response rate % (average) ([2]; Afatinib (10 μM)): 24%
- Response rate % (average) ([2]; Cabozantinib (5 μM)): 24%
- Response rate % (average) ([2]; Dabrafenib (10 μM)): 3%
- Response rate % (average) ([2]; Everolimus (5 μM)): −10%
- Response rate % (average) ([2]; Infigratinib (15 μM)): 1%
- Response rate % (average) ([2]; Lapatinib (5 μM)): 22%
- Response rate % (average) ([2]; Lenvatinib (10 μM)): 0%
- Response rate % (average) ([2]; Olmutinib (10 μM)): 37%
- Response rate % (average) ([2]; Regorafenib (5 μM)): 33%
- Response rate % (average) ([2]; Selumetinib (5 μM)): 20%
- Response rate % (average) ([2]; Sorafenib (5 μM)): 33%
- Response rate % (average) ([2]; Sunitinib (5 μM)): 19%
- Response rate % (average) ([3]; Afatinib (10 μM)): 26%
- Response rate % (average) ([3]; Cabozantinib (5 μM)): 13%
- Response rate % (average) ([3]; Dabrafenib (10 μM)): −8%
- Response rate % (average) ([3]; Everolimus (5 μM)): 14%
- Response rate % (average) ([3]; Infigratinib (15 μM)): 6%
- Response rate % (average) ([3]; Lapatinib (5 μM)): 23%
- Response rate % (average) ([3]; Lenvatinib (10 μM)): 25%
- Response rate % (average) ([3]; Olmutinib (10 μM)): 29%
- Response rate % (average) ([3]; Regorafenib (5 μM)): 29%
- Response rate % (average) ([3]; Selumetinib (5 μM)): 29%
- Response rate % (average) ([3]; Sorafenib (5 μM)): 26%
- Response rate % (average) ([3]; Sunitinib (5 μM)): 25%
- Response rate % (average) ([4]; Afatinib (10 μM)): 7%
- Response rate % (average) ([4]; Cabozantinib (5 μM)): 14%
- Response rate % (average) ([4]; Dabrafenib (10 μM)): 7%
- Response rate % (average) ([4]; Everolimus (5 μM)): 19%
- Response rate % (average) ([4]; Infigratinib (15 μM)): 28%
- Response rate % (average) ([4]; Lapatinib (5 μM)): 20%
- Response rate % (average) ([4]; Lenvatinib (10 μM)): 22%
- Response rate % (average) ([4]; Olmutinib (10 μM)): 33%
- Response rate % (average) ([4]; Regorafenib (5 μM)): 26%
- Response rate % (average) ([4]; Selumetinib (5 μM)): 19%
- Response rate % (average) ([4]; Sorafenib (5 μM)): 24%
- Response rate % (average) ([4]; Sunitinib (5 μM)): 4%
- Control rate [5, 7]: 28.57%
- Control rate [5, 8]: 37.50%
- Response rate % (average) ([6]; Afatinib (10 μM)): 27%
- Response rate % (average) ([6]; Cabozantinib (5 μM)): 8%
- Response rate % (average) ([6]; Dabrafenib (10 μM)): 4%
- Response rate % (average) ([6]; Everolimus (5 μM)): −8%
- Response rate % (average) ([6]; Infigratinib (15 μM)): 7%
- Response rate % (average) ([6]; Lapatinib (5 μM)): −4%
- Response rate % (average) ([6]; Lenvatinib (10 μM)): 18%
- Response rate % (average) ([6]; Olmutinib (10 μM)): 35%
- Response rate % (average) ([6]; Regorafenib (5 μM)): 12%
- Response rate % (average) ([6]; Selumetinib (5 μM)): 16%
- Response rate % (average) ([6]; Sorafenib (5 μM)): 30%
- Response rate % (average) ([6]; Sunitinib (5 μM)): 14%
